We go through eight compounds from patent US20190308962A1, “FXR (NR1H4) Modulating Compounds” (GILEAD SCIENCES, INC., priority 2016, published 2019).

Data set [1] has as its target T1, human FXR alpha ligand binding domain (Homo sapiens, UniProt Q96RI1).
T1 construct: made in house; host or cells: E. coli BL21(DE3), vector pDEST15
T1 sequence (Q96RI1 187-472 isoform Q96RI1-2): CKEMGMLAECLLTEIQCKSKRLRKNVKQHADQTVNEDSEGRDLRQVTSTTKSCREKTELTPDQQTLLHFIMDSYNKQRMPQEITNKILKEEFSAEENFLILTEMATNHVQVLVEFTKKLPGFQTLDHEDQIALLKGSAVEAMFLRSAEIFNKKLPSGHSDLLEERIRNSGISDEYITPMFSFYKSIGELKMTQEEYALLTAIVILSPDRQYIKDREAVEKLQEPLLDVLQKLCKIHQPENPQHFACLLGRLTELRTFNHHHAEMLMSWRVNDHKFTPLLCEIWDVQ
As to the kind of experiment: FRET activity assay (ligand mediated cofactor peptide interaction, LANCE). Format: biochemical. The note with it: GST-FXR-LBD / biotinylated SRC-1 peptide (676-700). As for the experimental part: Determination of a ligand mediated cofactor peptide interaction to quantify ligand binding to the nuclear receptor FXR was performed as follows.
Preparation of human FXR alpha ligand binding domain: The human FXRalpha LBD was expressed in E. coli strain BL21(DE3) as an N-terminally GST tagged fusion protein. The DNA encoding the FXR ligand binding domain was cloned into vector pDEST15 (Invitrogen). Expression was under control of an IPTG inducible T7 promoter. The amino acid boundaries of the ligand binding domain were amino acids 187-472 of Database entry NM_005123 (RefSeq). Expression and purification of the FXR-LBD: An overnight preculture of a transformed E. coli strain was diluted 1:20 in LB-Ampicillin medium and grown at 30° C. to an optical density of OD600=0.4-0.6. Gene expression was then induced by addition of 0.5 mM IPTG. Cells were incubated an additional 6 h at 30° C., 180 rpm. Cells were collected by centrifugation (7000×g, 7 min, rt). Per liter of original cell culture, cells were resuspended in 10 mL lysis buffer (50 mM Glucose, 50 mM Tris pH 7.9, 1 mM EDTA and 4 mg/mL lysozyme) and left on ice for 30 min. Cells were then subjected to sonication and cell debris removed via centrifugation (22000×g, 30 min, 4° C.). Per 10 mL of supernatant 0.5 mL prewashed Glutathione 4B sepharose slurry (Qiagen) was added and the suspension kept slowly rotating for 1 h at 4° C. Glutathione 4B sepharose beads were pelleted by centrifugation (2000×g, 15 sec, 4° C.) and washed twice in wash buffer (25 mM Tris, 50 mM KCl, 4 mM MgCl2 and 1M NaCl). The pellet was resuspended in 3 mL elution buffer per liter of original culture (elution buffer: 20 mM Tris, 60 mM KCl, 5 mM MgCl2 and 80 mM glutathione added immediately prior to use as powder). The suspension was left rotating for 15 min at 4° C., the beads pelleted and eluted again with half the volume of elution buffer than the first time. The eluates were pooled and dialysed overnight in 20 mM Hepes buffer (pH 7.5) containing 60 mM KCl, 5 mM MgCl2 as well as 1 mM dithiothreitol and 10% (v/v) glycerol. The protein was analysed by SDS-Page.
The method measures the ability of putative ligands to modulate the interaction between the purified bacterial expressed FXR ligand binding domain (LBD) and a synthetic biotinylated peptide based on residues 676-700 of SRC-1 (LCD2, 676-700). The sequence of the peptide used was B-[…]-COOH (SEQ ID NO: 1) where the N-terminus was biotinylated (B). The ligand binding domain (LBD) of FXR was expressed as fusion protein with GST in BL-21 cells using the vector pDEST15. Cells were lysed by sonication, and the fusion proteins purified over glutathione sepharose (Pharmacia) according to the manufacturers instructions. For screening of compounds for their influence on the FXR-peptide interaction, the Perkin Elmer LANCE technology was applied. This method relies on the binding dependent energy transfer from a donor to an acceptor fluorophor attached to the binding partner of interest. For ease of handling and reduction of background from compound fluorescence LANCE technology makes use of generic fluorophore labels and time resolved detection Assays were done in a final volume of 25 μL in a 384 well plate, in a Tris-based buffer (20 mM Tris-HCl pH 7.5; 60 mM KCl, 5 mM MgCl2; 35 ng/μL BSA), containing 20-60 ng/well recombinantly expressed FXR-LBD fused to GST, 200-600 nM N-terminally biotinylated peptide, representing SRC1 aminoacids 676-700, 200 ng/well Streptavidin-xlAPC conjugate (Prozyme) and 6-10 ng/well Eu W1024-antiGST (Perkin Elmer). DMSO content of the samples was kept at 1%. After generation of the assay mix and diluting the potentially FXR modulating ligands, the assay was equilibrated for 1 h in the dark at rt in FIA-plates black 384 well (Greiner). The LANCE signal was detected by a Perkin Elmer VICTOR2V™ Multilabel Counter. The results were visualized by plotting the ratio between the emitted light at 665 and 615 nm. […]
In general terms: Time-resolved FRET reads energy transfer from a long-lived donor to a nearby acceptor.

Data set [2] has as its target T2, FXR ligand binding domain (Homo sapiens, UniProt Q96RI1).
T2 construct: expressed in transfected cells; host or cells: HEK293 (DSMZ), transient transfection with pCMV-BD-FXR-LBD, pFR-Luc and pRL-CMV
T2 sequence (Q96RI1 187-472 isoform Q96RI1-2): T1 sequence (Q96RI1 187-472 isoform Q96RI1-2)
As to the kind of experiment: Mammalian one hybrid (M1H) Gal4 reporter gene assay in HEK293 cells. Format: cell-based. The conditions noted are these: Gal4-FXR-LBD, luciferase reporter, 16 h. On the procedure:
Determination of a ligand mediated Gal4 promoter driven transactivation to quantify ligand binding mediated activation of FXR was performed as follows.
The cDNA part encoding the FXR ligand binding domain was cloned into vector pCMV-BD (Stratagene) as a fusion to the yeast GAL4 DNA binding domain under the control of the CMV promoter. The amino acid boundaries of the ligand binding domain were amino acids 187-472 of Database entry NM_005123 (RefSeq). The plasmid pFR-Luc (Stratagene) was used as the reporter plasmid, containing a synthetic promoter with five tandem repeats of the yeast GAL4 binding sites, driving the expression of the Photinus pyralis (American firefly) luciferase gene as the reporter gene. In order to improve experimental accuracy the plasmid pRL-CMV (Promega) was cotransfected. pRL-CMV contains the constitutive CMV promoter, controlling the expression of the Renilla reniformis luciferase. All Gal4 reporter gene assays were done in HEK293 cells (obtained from DSMZ, Braunschweig, Germany) grown in MEM with L-Glutamine and Earle's BSS supplemented with 10% fetal bovine serum, 0.1 mM nonessential amino acids, 1 mM sodium pyruvate, and 100 units Penicilin/[…] per mL at 37° C. in 5% CO2. Medium and supplements were obtained from Invitrogen. For the assay, […] cells were plated per well in 96 well plates in 100 μL per well MEM without Phenol Red and L-Glutamine and with Earle's BSS supplemented with 10% charcoal/dextran treated FBS (HyClone, South Logan, Utah), 0.1 mM nonessential amino acids, 2 mM glutamine, 1 mM sodium pyruvate, and 100 units Penicilin/[…] per mL, incubated at 37° C. in 5% CO2. The following day the cells were >90% confluence. Medium was removed and cells were transiently transfected using 20 μL per well of an OptiMEM-polyethylene-imine-based transfection-reagent (OptiMEM, Invitrogen; Polyethyleneimine, Aldrich Cat No. 40, 827-7) including the three plasmids described above. MEM with the same composition as used for plating cells was added 2-4 h after addition of transfection mixture. Then compound stocks, prediluted in MEM were added (final vehicle concentration not exceeding 0.1%). Cells were incubated for additional 16 h before firefly and renilla luciferase activities were measured sequentially in the same cell extract using a Dual-Light-Luciferase-Assay system (Dyer et al., Anal. Biochem. 2000, 282, 158-161). All experiments were done in triplicates.

For data set [3], the system named is FGF19. As to the kind of experiment: In vivo pharmacodynamics in cynomolgus monkey: plasma FGF19 (ELISA). The conditions noted are these: oral. The source says: (§1) Each dosing group consisted of three male Cynomolgus monkeys.
Background: ELISA stands for enzyme-linked immunosorbent assay.

The nature of data set [4]: Plasma drug exposure in cynomolgus monkey after oral dosing. Format: in vivo.
From the text: as §1

As to `O=C(O)CNC(=O)c1cnc(N2CC(O)(c3ccc(OCc4c(-c5c(Cl)cc(F)cc5Cl)noc4C4CC4)cc3Cl)C2)c(F)c1` [Example 8, (6-(3-(2-chloro-4-((5-cyclopropyl-3-(2,6-dichloro-4-fluorophenyl)isoxazol-4-yl)methoxy)phenyl)-3-hydroxyazetidin-1-yl)-5-fluoronicotinoyl)glycine], the values for the EC50 in data set [1] and in data set [2] were 8.1 nM and 1260 nM, respectively.

As for `O=C(O)c1ccnc(N2CC(O)(c3ccc(OCc4c(-c5ccc(F)cc5F)noc4C4CC4)cc3Cl)C2)c1` [Example 1, 2-(3-(2-chloro-4-((5-cyclopropyl-3-(2,4-difluorophenyl)isoxazol-4-yl)methoxy)phenyl)-3-hydroxyazetidin-1-yl)isonicotinic Acid], the results for the EC50 in data set [1] and in data set [2] were 263 nM and 3000 nM, respectively.

As to `Cc1onc(-c2c(Cl)cc(F)cc2Cl)c1COc1ccc(C2(O)CN(c3ncc(C(=O)O)cc3F)C2)c(Cl)c1` [Example 4, 6-(3-(2-chloro-4-((3-(2,6-dichloro-4-fluorophenyl)-5-methylisoxazol-4-yl)methoxy)phenyl)-3-hydroxyazetidin-1-yl)-5-fluoronicotinic Acid], the EC50 (as a rule, the midpoint of the concentration-response curve) was determined as 35 nM in data set [1] and 176 nM in data set [2].

Consider `O=C(NCCS(=O)(=O)O)c1cnc(N2CC(O)(c3ccc(OCc4c(-c5c(Cl)cc(F)cc5Cl)noc4C4CC4)cc3Cl)C2)c(F)c1` [Example 7, 2-(6-(3-(2-chloro-4-((5-cyclopropyl-3-(2,6-dichloro-4-fluorophenyl)isoxazol-4-yl)methoxy)phenyl)-3-hydroxyazetidin-1-yl)-5-fluoronicotinamido)ethane-1-sulfonic Acid], for which the figures for the EC50 in data set [1] and in data set [2] were 6.9 nM and 1700 nM, respectively.

In the case of `O=C(O)c1cnc(N2CC(O)(c3ccc(OCc4c(C5CC5)cnn4-c4c(Cl)cc(F)cc4Cl)cc3Cl)C2)c(F)c1` [Example 5, 6-(3-(2-chloro-4-((4-cyclopropyl-1-(2,6-dichloro-4-fluorophenyl)-1H-pyrazol-5-yl)methoxy)phenyl)-3-hydroxyazetidin-1-yl)-5-fluoronicotinic Acid], the EC50 in data set [1] was 18 nM; in data set [2] it was 8.6 nM.

On to `COc1ncc(C(=O)O)cc1[C@H]1C[C@](O)(c2ccc(OCc3c(-c4c(Cl)cc(F)cc4Cl)noc3C3CC3)cc2Cl)C1` [Example 6, 5-((1S,3S)-3-(2-chloro-4-((5-cyclopropyl-3-(2,6-dichloro-4-fluorophenyl)isoxazol-4-yl)methoxy)phenyl)-3-hydroxycyclobutyl)-6-methoxynicotinic Acid], for which the EC50 in data set [1] came out at 49 nM; in data set [2], 353 nM.

Consider `O=C(O)c1ccnc(N2CC(O)(c3ccc(OCc4c(-c5c(Cl)cc(F)cc5Cl)noc4C4CC4)cc3Cl)C2)c1` [Example 2, 2-(3-(2-chloro-4-((5-cyclopropyl-3-(2,6-dichloro-4-fluorophenyl)isoxazol-4-yl)methoxy)phenyl)-3-hydroxyazetidin-1-yl)isonicotinic Acid], for which the figures for the EC50 in data set [1] and in data set [2] were 25 nM and 831 nM, respectively.

Consider `O=C(O)c1cnc(N2CC(O)(c3ccc(OCc4c(-c5c(Cl)cc(F)cc5Cl)noc4C4CC4)cc3Cl)C2)c(F)c1` [Example 3, 6-(3-(2-chloro-4-((5-cyclopropyl-3-(2,6-dichloro-4-fluorophenyl)isoxazol-4-yl)methoxy)phenyl)-3-hydroxyazetidin-1-yl)-5-fluoronicotinic Acid], for which the EC50 in data set [1] stood at 7.4 nM; in data set [2] it was 3.8 nM. Further, in data set [3] (3 to 300 mg/kg), the “Plasma FGF19 response to increasing doses” value is “dose-dependently increased plasma FGF19”. Moreover, the “Plasma FGF19 Cmax” value in data set [3] (highest dose (300 mg/kg)) was 16000 pg/mL. Besides, the “Maximal AUC, compared between the two compounds” value in data set [4] (300 mg/kg) is “comparable”. In data set [4] (3 to 300 mg/kg), the “Plasma exposure with increasing doses” value is recorded as “Dose-dependent increases in plasma exposure”.
